Measurements taken from US20150366821A1, “ADRENERGIC AGONISTS FOR USE IN TREATING LIVER DAMAGE” (priority 2012, published 2015).

Legend:
[1] = test system: APAP induced liver injury; assay: APAP induced liver injury model (serum ALT, % necrosis, deaths); conditions: for ALT 3 h after APAP treatment: APAP alone vs APAP with ISO
Experimental: (§1) Dbh^−/− mice were administered ISO as previously described (Mackintosh, C. A., et al. 2000). Mouse recombinant TWEAK (R&D systems) was administered IP at 0.04 μg/g body weight.
The degree of liver injury was assessed by histology and serum ALT. All liver sections were stained with haematoxylin and eosin (H&E) and scanned by NanoZoomer (Hamamatsu, Japan). Necrotic area was measured and expressed as a percentage of necrotic tissue in whole area of liver section using NDP.view (Hamamatsu, Japan).

[2] = test system: HPC number and liver injury; assay: Infusion of SNS agonists into spontaneously steatohepatitic ob/ob mice; format: in vivo
[3] = test system: hepatic progenitor cells (HPC); assay: CK19 positive HPC number in Dbh−/− mice infused with isoprenaline; format: in vivo; conditions: ISO infused at 20 mg/kg/day
Experimental: as §1

603B cells = assay: 603B cell proliferation assay (CCK-8 / direct cell counts); format: cell-based, murine
Experimental: Cell proliferation assay was performed using the Cell counting Kit-8 (CCK-8) according to the manufacturer's protocol.
To further confirm the CCK-8 assay we also directly counted the cell numbers in some experiments. Adherent cells were treated with 0.25% trypsin solution containing 0.02% EGTA in Ca^2+ and Mg^2+ free phosphate-buffered saline at 37° C. for 5 min, and the viable cell number and dead cell number was determined using Nucleocounter (Chemometec).

[4] = test system: hepatic progenitor cells (HPC); assay: HPC number in livers of normal C57BL/6J mice (EpCAM flow cytometry, CK19 immunohistochemistry); format: in vivo; conditions: ISO 2.5 mg/kg
From the text: Control mice received PBS vehicle (Con). Data are representative from 2 independent experiments. Data are mean±s.e.m. (n=4 per group);
Mice received either a control treatment (Con) or isoprenaline (ISO);
Formalin-fixed paraffin-embedded tissue were cut at 4 μm onto glass slides coated with poly-l-lysine. For chromogenic IHC, antibody binding was visualized using the ImmPRESS Peroxidase Polymer Detection Reagents (Vector lab, UK). For double chromogenic IHC, microwave heat treatment in citric based solution (Vector lab, UK) were applied after the first color development. For immunofluorescence IHC or immunocytochemistry, Alexa Fluor 555 and Alexa Fluor 488 conjugated secondary antibody were used. Nuclei were stained with DAPI (Vector). All images were captured using a Nikon Eclipse e600 microscope and camera (DXM1200F) and acquired with NIS-Elements Advance software (Nikon). HPC numbers were counted by an expert liver pathologist unaware of the identity of the groups as previously described (Oben, J. A., et al. 2003).

[5] = test system: canonical Wnt pathway (β-catenin) in 603B cells; assay: Canonical Wnt pathway in 603B cells (western blot, immunocytochemistry, real-time PCR); format: cell-based, murine
[6] = test system: canonical Wnt pathway on HPC; assay: Canonical Wnt pathway in liver of ISO treated mice (PCR, immunohistochemistry); format: in vivo
Experimental: FIG. 2F are immunohistochemical stains for active β-catenin in a mouse liver 24 hours after administration of vehicle (Con) or Isoprenaline (ISO). Left panel=lower magnification; Right panel=higher magnification;
Formalin-fixed paraffin-embedded tissue were cut at 4 μm onto glass slides coated with poly-l-lysine. For chromogenic IHC, antibody binding was visualized using the ImmPRESS Peroxidase Polymer Detection Reagents (Vector lab, UK). For double chromogenic IHC, microwave heat treatment in citric based solution (Vector lab, UK) were applied after the first color development. For immunofluorescence IHC or immunocytochemistry, Alexa Fluor 555 and Alexa Fluor 488 conjugated secondary antibody were used. Nuclei were stained with DAPI (Vector). All images were captured using a Nikon Eclipse e600 microscope and camera (DXM1200F) and acquired with NIS-Elements Advance software (Nikon).
Duplicate PCR reactions were performed with multiplex PCR kit (Qiagen) using mixed primer (GAPDH and target primer). Semi-quantitative real time PCR was done with Rotor-Gene 3000 (Corbett Robotics) and QuantiFast SYBR Green PCR kit (Qiagen). All real-time PCR reactions were performed in triplicate with GAPDH as an internal control. Target gene levels in treated samples are presented as a ratio to levels detected in corresponding control samples, according to the ΔΔCt method.

[7] = test system: canonical Wnt pathway (β-catenin, Wnt ligands); assay: Canonical Wnt pathway in livers of APAP treated mice (western blot, immunohistochemistry, Wnt ligand PCR); format: in vivo
Experimental: Semi-quantitative real time PCR was done with Rotor-Gene 3000 (Corbett Robotics) and QuantiFast SYBR Green PCR kit (Qiagen). All real-time PCR reactions were performed in triplicate with GAPDH as an internal control. Target gene levels in treated samples are presented as a ratio to levels detected in corresponding control samples, according to the ΔΔCt method. Western blotting was performed as described (Soeda, J et al., 2012). Western blots shown are representative of 2 or 3 independent repeats. Semi-quantitative analysis of western blots by densitometry was carried out using LabWorks 4.6 software (UVP, USA).

[8] = test system: hepatic stellate cells (HSC) and Kupffer cells (KC); assay: Wnt expression in isolated liver cell types ex vivo; format: cell-based, mice; conditions: presence of ISO
β-catenin in hepatocytes = assay: β-catenin expression on primary hepatocytes (western blotting); format: cell-based, mice; conditions: data not shown
Experimental: Western blotting was performed as described (Soeda, J et al., 2012). Western blots shown are representative of 2 or 3 independent repeats. Semi-quantitative analysis of western blots by densitometry was carried out using LabWorks 4.6 software (UVP, USA).

[9] = test system: HPC expansion and hepatomegaly; assay: Dbh−/− mice on a diet inducing NASH; format: in vivo; conditions: infusion of ISO
[10] = test system: hepatic progenitor cells (HPC); assay: HPC number in APAP induced liver injury model (flow cytometry, immunohistochemistry)
[11] = test system: HPC population and liver injury; conditions: in vivo conditions simulating NASH
[12] = test system: liver progenitors and liver injury; conditions: chronic model of liver disease; cited from earlier work
[13] = test system: hepatic progenitor cells (HPC); format: in vivo, mice; conditions: recombinant TWEAK 0.04 μg/g IP
From the text: FIG. 5C are representative images of immunohistochemical staining with CK19 (DAB chromogen, brown), upper panels; and CK19 with Ki67 (AEC chromogen, red), double staining (middle panels) and NFκB p65 immunostaining (lower panels). Insert=higher magnification, arrow head indicates positive staining of ki67 in CK 19+ve HPCs. White arrow head indicates nuclear localization of NFKb p65 in periportal ductular cells;
Nuclei were stained with DAPI (Vector).

[14] = 24 h after APAP 375 mg/kg, APAP alone vs ISO (2.5 mg/kg) 1 h after APAP

**Q.** For `CC(=O)N[C@@H](CS)C(=O)O` [NAC, N-Acetyl Cysteine], which “hepatocyte injury (ALT)” value ([1]; NAC 150 mg/kg administered 1 hour following APAP overdose) is on record?
**A.** markedly reduces hepatocyte injury

**Q.** And the “protection from APAP injury (ALT)” value ([1]; NAC administered 3 hrs post APAP)?
**A.** did not have a protective role

**Q.** Which HPC number [2] does the source give for `NC[C@H](O)c1ccc(O)c(O)c1` [NE, Norepinephrine] here?
**A.** increases in HPC number

**Q.** What about the liver injury [2] of the same molecule?
**A.** reduction in liver injury

**Q.** Which “ALT 3 h after APAP treatment” value [1] does the source give for `CC(=O)Nc1ccc(O)cc1` [APAP, Paracetamol] here?
**A.** significant elevation in ALT

**Q.** What about the ALT [1, 14] of the same molecule?
**A.** 3332±462.9 IU/L

**Q.** What about the deaths ([1]; APAP 500 mg/kg intraperitoneally) of the same molecule?
**A.** significant number of deaths

**Q.** Which “HPC numbers (CK-19 positive cells)” value [3] does the source give for `CC(C)NCC(O)c1ccc(O)c(O)c1` (stereo not shown) [ISO, Isoprenaline] here?
**A.** significantly recovered HPC numbers

**Q.** And the 603B cell proliferation (603B cells; ISO 100 pM-10 μM)?
**A.** induced 603B cell proliferation

**Q.** And the “number of HPC cells (EpCAM flow cytometry, CK19 immunohistochemistry)” value [4]?
**A.** increased the number of the HPC cells

**Q.** And the “Wnt1, 3a, 6 and ma mRNA expression” value ([5]; 10 μM ISO, real-time PCR)?
**A.** significantly increased

**Q.** And the “expression of cyclin D1” value ([5]; 10 μM ISO, western blot)?
**A.** significantly upregulated

**Q.** And the “expression of dephophorelated β-catenin (activated β-catenin)” value ([5]; 10 μM ISO, western blot)?
**A.** significantly upregulated

**Q.** And the “total β-catenin expression” value ([5]; 10 μM ISO, western blot)?
**A.** significantly increased

**Q.** What about the “nuclear localisation of β-catenin” value ([5]; immunofluorescence cytochemistry) of the same molecule?
**A.** accumulation of β-catenin in the nuclei

**Q.** What about the “Wnt6 mRNA in total liver” value ([6]; 24 h after ISO injection) of the same molecule?
**A.** upregulation of Wnt6 mRNA

**Q.** And the “β-catenin immunoreactivity on periportal ductular cell” value ([6]; 24 h after ISO, immunohistochemistry)?
**A.** strong β-catenin immunoreactivity

**Q.** What about the “ALT 3 h after APAP treatment” value [1] of the same molecule?
**A.** significantly attenuated

**Q.** What about the ALT [1, 14] of the same molecule?
**A.** 674.1±173 IU/L

**Q.** And the hepatic necrosis [1, 14]?
**A.** 18.48±1.935%

**Q.** What about the “effect on deaths after APAP” value ([1]; APAP 500 mg/kg intraperitoneally, ISO treatment) of the same molecule?
**A.** reduced by ISO treatment

**Q.** What about the “APAP induced-liver injury (ALT)” value ([1]; ISO administered 3 hrs post APAP) of the same molecule?
**A.** markedly reduced APAP induced-liver injury

**Q.** What about the “β-catenin expression in liver (Western blotting)” value ([7]; 24 h after injection, ISO treated vs APAP alone and controls) of the same molecule?
**A.** significantly increased

**Q.** And the “Wnt6 expression in total liver” value ([7]; APAP+ISO group compared to APAP only group, 24 h)?
**A.** significantly higher expression

**Q.** And the “Wnt 10a expression” value ([7]; APAP+ISO group, 2 h after APAP administration)?
**A.** significantly higher expression

**Q.** What about the β-catenin activation ([7]; APAP+ISO group, 3 h after APAP administration) of the same molecule?
**A.** significant β-catenin activation

**Q.** And the “activated β-catenin staining in liver (immunohistochemistry)” value ([7]; APAP+ISO treated groups, 24 h)?
**A.** strong β-catenin staining

**Q.** And the “Wnt 6 expression in HSC or KC” value [8]?
**A.** did not induce upregulation of Wnt 6

**Q.** And the “β-catenin expression on hepatocytes (Western blotting)” value (β-catenin in hepatocytes)?
**A.** did not increase β-catenin expression

**Q.** And the HPC number [2]?
**A.** increases in HPC number

**Q.** And the liver injury [2]?
**A.** reduction in liver injury

**Q.** What about the “loss of hepatomegaly and expansion of HPC on NASH diet” value [9] of the same molecule?
**A.** reversed

**Q.** What about the “protection of hepatocytes from APAP induced death (LDH release)” value (primary hepatocytes; ISO pre-treatment 100 pM-10 μM, 10 mM APAP) of the same molecule?
**A.** did not protect

**Q.** What about the “number of HPCs (flow cytometry and immunohistochemistry)” value ([10]; APAP 375 mg/kg + ISO vs APAP alone) of the same molecule?
**A.** significantly increased the number of HPCs

**Q.** What about the “HPC density in the smallest portal tract (CK19 positivity)” value ([10]; APAP+ISO group compared to APAP alone group) of the same molecule?
**A.** significantly increased

**Q.** With `CC(C)NCC(O)COc1cccc2ccccc12` (stereo not shown) [PRL, propranolol] as the molecule, how does the “effect on ISO induced 603B proliferation” value (603B cells; pre-treatment with 10 μM PRL, 10 μM ISO) read?
**A.** inhibited ISO induced proliferation

**Q.** And the HPC population [11]?
**A.** expanded the HPC population

**Q.** What about the “numbers of HPCs (CK19 positive cells density)” value ([10]; APAP with subsequent PRL) of the same molecule?
**A.** reduced numbers of HPCs

**Q.** Which “β-catenin expression on hepatocytes (Western blotting)” value (β-catenin in hepatocytes) does the source give for Wnt3a here?
**A.** induced increased β-catenin expression

**Q.** Which 603B cell proliferation (603B cells; PE 10 pM to 10 μM) does the source give for `CNC[C@H](O)c1cccc(O)c1` [PE, phenylephrine] here?
**A.** induced moderate but significant proliferation

**Q.** What about the ALT ([1]; APAP 375 mg/kg, PE 3 mg (3 mg/kg) 1 h after APAP, 24 hrs) of the same molecule?
**A.** 2000±1200

**Q.** What about the ALT ([1]; APAP 375 mg/kg, PE 10 mg (10 mg/kg) 1 h after APAP, 24 hrs) of the same molecule?
**A.** 450±200

**Q.** With `COc1cc2nc(N3CCN(C(=O)c4ccco4)CC3)nc(N)c2cc1OC` [PRZ, prazosin] as the molecule, how does the liver injury [12] read?
**A.** reduced injury

**Q.** And the liver progenitors [12]?
**A.** expanded liver progenitors

B1: DKK1: Wnt antagonist, recombinant mouse Dkk1 (protein, UniProt O54908 32-272, looked up)
Dickkopf-related protein 1: TLNSVLINSNAIKNLPPPLGGAGGQPGSAVSVAPGVLYEGGNKYQTLDNYQPYPCAEDEECGSDEYCSSPSRGAAGVGGVQICLACRKRRKRCMRHAMCCPGNYCKNGICMPSDHSHFPRGEIEESIIENLGNDHNAAAGDGYPRRTTLTSKIYHTKGQEGSVCLRSSDCAAGLCCARHFWSKICKPVLKEGQVCTKHKRKGSHGLEIFQRCYCGEGLACRIQKDHHQASNSSRLHTCQRH
**Q.** Which “proliferation of ISO-treated vs ISO plus DKK1-treated 603B cells” value (603B cells; recombinant Dkk1 0.1 μg/ml, ISO 10 μM, CCK8) does the source give for B1 here?
**A.** trend towards statistical difference

**Q.** And the “effect on protection by EpCAM positive cell administration” value ([1]; APAP + EpCAM+ve cells + DKK1)?
**A.** reversed the effect of EpCAM positive cell administration

**Q.** And the “effect on protection by ISO stimulated 603B conditioned media” value (primary hepatocytes; recombinant DKK1 0.1 μg/ml with CM)?
**A.** reversed

B2: TWEAK: Tumour associated weak inducer of apoptosis; mouse recombinant TWEAK (R&D systems) (protein, UniProt O43508 94-249, looked up)
Tumor necrosis factor ligand …: SAPKGRKTRARRAIAAHYEVHPRPGQDGAQAGVDGTVSGWEEARINSSSPLRYNRQIGEFIVTRAGLYYLYCQVHFDEGKAVYLKLDLLVDGVLALRCLEEFSATAASSLGPQLRLCQVSGLLALRPGSSLRIRTLPWAHLKAAPFLTYFGLFQVH
**Q.** With B2 as the molecule, how does the “APAP induced liver injury (% necrosis, serum ALT)” value ([1]; TWEAK 0.04 μg/g pre-treatment before APAP, 24 h) read?
**A.** protected from APAP induced liver injury

**Q.** And the “HPC proliferation (CK19+ve cells)” value [13]?
**A.** induced HPC proliferation
